Measured values from patent US11767310B2, “Nicotinamide RIPK1 inhibitors” (AbbVie Inc., priority 2021, dated 2023).
pIC50: −log10 of the molar value. Marks after values point to notes of the source that are not given here.

Legend:
[1] = test system: U937 cells; assay: U937 TNF/zVAD Cytotoxicity Cell Assay; assay type: cell-based; settings: Homo sapiens, U-937; TNFα 10 ng/mL + Z-VAD FMK 20 μM, 16-20 hours; read-out: U937 TNF/zVAD Induced Cytotoxicity IC50
Method: Compounds were tested for their ability to prevent TNF induced necroptosis in U937 cells. Treatment with TNF and the caspase inhibitor zVAD-FMK results in the activation and phosphorylation of RIPK1 and subsequent phosphorylation of RIPK3 and MLKL (Mixed Lineage Kinase Domain Like Pseudokinase), leading to induction of necroptotic cell death that is measured as a reduction in cell viability. Similar U937 assay protocols have been previously described; see, e.g., Harris et al., ACS Med. Chem. Letters (2013) 4:1238-1243 and Supplementary Information.
Test compounds were solvated in dimethyl sulfoxide (DMSO) and 3-fold serially diluted from 10 uM to 0.0005 uM with technical duplicates into an empty 384 well plate. U937 cells were resuspended at a concentration of 500,000 cells/mL in fresh RPMI (Roswell Park Memorial Institute) 1640 growth medium containing 10% heat inactivated fetal bovine serum (FB1S) and seeded into a 384 well plate containing compounds and incubated for 1 hour at 37° C. Following incubation, the cells were challenged with TNFα (final concentration of 10 ng/mL) and Z-VAD FMK (N-Benzyloxycarbonyl-Val-Ala-Asp(O-Me) fluoromethyl ketone; final concentration of 20 μM) for 16-20 hours at 37° C. Following the incubation with TNFα/Z-VAD, cells were lysed with Cell Titer-Glo and incubated for 5-10 minutes. The plate was then read on an Envision plate reader. Data was normalized and analyzed with Studies from Dotmatics.

[2] = Prodrug bioconversion in intestinal S9 cell fractions; assay type: in vitro ADME; settings: 0.25 mg/mL
Method: (§1) Phosphatase enzymes are […] expressed with unique tissue specific isoforms and are key catalysts in the conversion of phosphate-containing prodrugs. To determine if exemplary phosphate prodrug compounds of the invention are enzymatically converted to the parent molecule across relevant species, the prodrug compounds were incubated with intestinal S9 cell fractions obtained from mouse, rat, dog, monkey, and human.
Phosphate prodrugs were incubated (1 μM) for up to 2 hours in Tris-Cl buffer (pH 7.4) containing 3 mM magnesium chloride, intestinal S9 protein ([…] (ms, rat, hu, Table F) from mouse, rat, dog, monkey or human. Incubations were conducted in the absence and presence of 1 mM sodium orthovanadate, a phosphatase inhibitor. Prodrug depletion and parent formation were monitored by LC-MS/MS and normalized to internal standard as the analyte peak area ratio.

[3] = as above; assay type: in vitro ADME
Method: as §1
[…] Incubations were conducted in the absence and presence of 1 mM sodium orthovanadate, a phosphatase inhibitor. Prodrug depletion and parent formation were monitored by LC-MS/MS and normalized to internal standard as the analyte peak area ratio.

[4] = Human, 0.01 mg/mL S9 protein, Table F
[5] = Human, 0.25 mg/mL S9 protein, Table F
[6] = Human, 0.25 mg/mL, Experiment 1
[7] = Human, 0.25 mg/mL, Experiment 2
[8] = Human, 0.25 mg/mL, Experiment 3
[9] = Human, 0.25 mg/mL, Mean of 3 experiments
[10] = Mouse, 0.01 mg/mL S9 protein, Table F
[11] = Mouse, 0.25 mg/mL S9 protein, Table F
[12] = Mouse, 0.25 mg/mL, Experiment 1
[13] = Mouse, 0.25 mg/mL, Experiment 2
[14] = Mouse, 0.25 mg/mL, Experiment 3
[15] = Mouse, 0.25 mg/mL, Mean of 3 experiments
[16] = Rat, 0.01 mg/mL S9 protein, Table F
[17] = Rat, 0.25 mg/mL S9 protein, Table F
[18] = Rat, 0.25 mg/mL, Mean of 3 experiments

| Clint (prodrug disappearance) ([2]; Dog, Experiment 1) | Clint (prodrug disappearance) ([2]; Dog, Experiment 2) | Clint (prodrug disappearance) ([2]; Dog, Experiment 3) | Clint (prodrug disappearance) ([2]; Dog, Mean of 3 experiments) | Clint (prodrug disappearance) ([2]; Monkey, Experiment 1) | Clint (prodrug disappearance) ([2]; Monkey, Experiment 2) | Clint (prodrug disappearance) ([2]; Monkey, Experiment 3) | Clint (prodrug disappearance) ([2]; Monkey, Mean of 3 experiments) | Clint (prodrug disappearance) [3, 4] | Clint (prodrug disappearance) [3, 5] | Clint (prodrug disappearance) [3, 6] | Clint (prodrug disappearance) [3, 7] | Clint (prodrug disappearance) [3, 8] | Clint (prodrug disappearance) [3, 9] | Clint (prodrug disappearance) [3, 10] | Clint (prodrug disappearance) [3, 11] | Clint (prodrug disappearance) [3, 12] | Clint (prodrug disappearance) [3, 13] | Clint (prodrug disappearance) [3, 14] | SMILES | pIC50 [1] | further results |
| --- | --- | --- | --- | --- | --- | --- | --- | --- | --- | --- | --- | --- | --- | --- | --- | --- | --- | --- | --- | --- | --- |
| 354 μL/min/mg intestinal S9 protein | 369 μL/min/mg intestinal S9 protein | 345 μL/min/mg intestinal S9 protein | 356 μL/min/mg intestinal S9 protein | 55.4 μL/min/mg intestinal S9 protein | 47.7 μL/min/mg intestinal S9 protein | 48.1 μL/min/mg intestinal S9 protein | 50.4 μL/min/mg intestinal S9 protein | 1180.2 μL/min/mg intestinal S9 protein | 243.4 μL/min/mg intestinal S9 protein | 199 μL/min/mg intestinal S9 protein | 241 μL/min/mg intestinal S9 protein | 203 μL/min/mg intestinal S9 protein | 214 μL/min/mg intestinal S9 protein | <137** μL/min/mg intestinal S9 protein | 23.3 μL/min/mg intestinal S9 protein | 26.2 μL/min/mg intestinal S9 protein | 34.3 μL/min/mg intestinal S9 protein | 31.3 μL/min/mg intestinal S9 protein | CN(C[C@H](Cc1ccccc1)OP(=O)(O)O)C(=O)c1cncc(C#Cc2cnn(C)n2)c1 [Example 23, (S)-1-(N-methyl-5-((2-methyl-2H-1,2,3-triazol-4-yl)ethynyl)nicotinamido)-3-phenylpropan-2-yl dihydrogen phosphate] |  | Clint (prodrug disappearance) [3, 15]: 30.6 μL/min/mg intestinal S9 protein; Clint (prodrug disappearance) [3, 16]: <137** μL/min/mg intestinal S9 protein; Clint (prodrug disappearance) [3, 17]: 36.7 μL/min/mg intestinal S9 protein; Clint (prodrug disappearance) ([3]; Rat, 0.25 mg/mL, Experiment 1): 29.1 μL/min/mg intestinal S9 protein; Clint (prodrug disappearance) ([3]; Rat, 0.25 mg/mL, Experiment 2): 33.8 μL/min/mg intestinal S9 protein; Clint (prodrug disappearance) ([3]; Rat, 0.25 mg/mL, Experiment 3): 28.2 μL/min/mg intestinal S9 protein; Clint (prodrug disappearance) [3, 18]: 30.4 μL/min/mg intestinal S9 protein |
| 10.2 μL/min/mg intestinal S9 protein | 14.4 μL/min/mg intestinal S9 protein | 11.5 μL/min/mg intestinal S9 protein | 12.0 μL/min/mg intestinal S9 protein | 38.1 μL/min/mg intestinal S9 protein | 49.0 μL/min/mg intestinal S9 protein | 40.7 μL/min/mg intestinal S9 protein | 42.6 μL/min/mg intestinal S9 protein | 378.1 μL/min/mg intestinal S9 protein | 410 μL/min/mg intestinal S9 protein | 272 μL/min/mg intestinal S9 protein | 294 μL/min/mg intestinal S9 protein | 293 μL/min/mg intestinal S9 protein | 286 μL/min/mg intestinal S9 protein | 6821.9 μL/min/mg intestinal S9 protein | >1640.7* μL/min/mg intestinal S9 protein | >480* μL/min/mg intestinal S9 protein | >480* μL/min/mg intestinal S9 protein | >480* μL/min/mg intestinal S9 protein | CN(C[C@H](Cc1ccccc1)OC(=O)CN)C(=O)c1cncc(C#Cc2cnn(C)n2)c1 [Example 25, (S)-1-(N-methyl-5-((2-methyl-2H-1,2,3-triazol-4-yl)ethynyl)nicotinamido)-3-phenylpropan-2-yl 2-aminoacetate, hydrochloric acid] |  | Clint (prodrug disappearance) [3, 15]: >480* μL/min/mg intestinal S9 protein; Clint (prodrug disappearance) [3, 16]: 1087.6 μL/min/mg intestinal S9 protein; Clint (prodrug disappearance) [3, 17]: 393.8 μL/min/mg intestinal S9 protein; Clint (prodrug disappearance) ([3]; Rat, 0.25 mg/mL, Experiment 1): 217 μL/min/mg intestinal S9 protein; Clint (prodrug disappearance) ([3]; Rat, 0.25 mg/mL, Experiment 2): 318 μL/min/mg intestinal S9 protein; Clint (prodrug disappearance) ([3]; Rat, 0.25 mg/mL, Experiment 3): 299 μL/min/mg intestinal S9 protein; Clint (prodrug disappearance) [3, 18]: 278 μL/min/mg intestinal S9 protein |

Continued, compound first:

| SMILES | Clint (prodrug disappearance) ([2]; Dog, Experiment 1) | Clint (prodrug disappearance) ([2]; Dog, Experiment 2) | Clint (prodrug disappearance) ([2]; Dog, Experiment 3) | Clint (prodrug disappearance) ([2]; Dog, Mean of 3 experiments) | Clint (prodrug disappearance) ([2]; Monkey, Experiment 1) | Clint (prodrug disappearance) ([2]; Monkey, Experiment 2) | Clint (prodrug disappearance) ([2]; Monkey, Experiment 3) | Clint (prodrug disappearance) ([2]; Monkey, Mean of 3 experiments) | Clint (prodrug disappearance) [3, 4] | Clint (prodrug disappearance) [3, 5] | Clint (prodrug disappearance) [3, 6] | Clint (prodrug disappearance) [3, 7] | Clint (prodrug disappearance) [3, 8] | Clint (prodrug disappearance) [3, 9] | Clint (prodrug disappearance) [3, 10] | Clint (prodrug disappearance) [3, 11] | Clint (prodrug disappearance) [3, 12] | Clint (prodrug disappearance) [3, 13] | Clint (prodrug disappearance) [3, 14] | pIC50 [1] | further results |
| --- | --- | --- | --- | --- | --- | --- | --- | --- | --- | --- | --- | --- | --- | --- | --- | --- | --- | --- | --- | --- | --- |
| CN(C[C@@H](O)Cc1ccccc1)C(=O)c1cncc(C#Cc2cnn(C)c2)c1 [Example 1, (S)-N-(2-hydroxy-3-phenylpropyl)-N-methyl-5-((1-methyl-1H-pyrazol-4-yl)ethynyl)nicotinamide] |  |  |  |  |  |  |  |  |  |  |  |  |  |  |  |  |  |  |  | 7.47 |  |
| Cc1ncc(C(=O)N(C)C[C@@H](O)Cc2ccccc2)cc1C#Cc1cnn(C)c1 [Example 14, (S)-N-(2-hydroxy-3-phenylpropyl)-N,6-dimethyl-5-((1-methyl-1H-pyrazol-4-yl)ethynyl)nicotinamide] |  |  |  |  |  |  |  |  |  |  |  |  |  |  |  |  |  |  |  | 7.74 |  |
| Cc1ncc(C(=O)NC[C@@H](O)Cc2ccccc2)cc1C#Cc1cncs1 [Example 16, (S)-N-(2-hydroxy-3-phenylpropyl)-6-methyl-5-(thiazol-5-ylethynyl)nicotinamide] |  |  |  |  |  |  |  |  |  |  |  |  |  |  |  |  |  |  |  | 5.59 |  |
| CN(C[C@H](Cc1ccccc1)OC(=O)CN)C(=O)c1cncc(C#Cc2cnn(C(F)F)c2)c1 [Example 21, (S)-1-(5-((1-(difluoromethyl)-1H-pyrazol-4-yl)ethynyl)-N-methylnicotinamido)-3-phenylpropan-2-yl 2-aminoacetate, hydrochloric acid] | 5.62 μL/min/mg intestinal S9 protein | 16.1 μL/min/mg intestinal S9 protein | 14.3 μL/min/mg intestinal S9 protein | 12.0 μL/min/mg intestinal S9 protein | 89.6 μL/min/mg intestinal S9 protein | 91.3 μL/min/mg intestinal S9 protein | 90.7 μL/min/mg intestinal S9 protein | 90.5 μL/min/mg intestinal S9 protein | 815.9 μL/min/mg intestinal S9 protein | 592.9 μL/min/mg intestinal S9 protein | 391 μL/min/mg intestinal S9 protein | 400 μL/min/mg intestinal S9 protein | 355 μL/min/mg intestinal S9 protein | 382 μL/min/mg intestinal S9 protein | 11160 μL/min/mg intestinal S9 protein | >4166.5* μL/min/mg intestinal S9 protein | >480* μL/min/mg intestinal S9 protein | >480* μL/min/mg intestinal S9 protein | >480* μL/min/mg intestinal S9 protein |  | Clint (prodrug disappearance) [3, 15]: >480* μL/min/mg intestinal S9 protein; Clint (prodrug disappearance) [3, 16]: 2599.5 μL/min/mg intestinal S9 protein; Clint (prodrug disappearance) [3, 17]: 901.6 μL/min/mg intestinal S9 protein; Clint (prodrug disappearance) ([3]; Rat, 0.25 mg/mL, Experiment 1): 396 μL/min/mg intestinal S9 protein; Clint (prodrug disappearance) ([3]; Rat, 0.25 mg/mL, Experiment 2): 719 μL/min/mg intestinal S9 protein; Clint (prodrug disappearance) ([3]; Rat, 0.25 mg/mL, Experiment 3): 750 μL/min/mg intestinal S9 protein; Clint (prodrug disappearance) [3, 18]: 622 μL/min/mg intestinal S9 protein |
